The text below walks through data of patent US20250034264A1, “REGULATING T CELL IMMUNE RESPONSE THROUGH IGF-I RECEPTOR (IGF-1R)” (The Regents of the University of Michigan, priority 2021, published 2025).

Common to all, as to assay type: cell-based, human
For assay [1], the system named is purified, isolated cultured CD3+CD4+ T cells. Put plainly: IL-17A and INFγ in purified, isolated cultured T cells (flow cytometry). The method, then:
(§1) Invariably, a small population of tightly adherent T cells were found in the fibrocyte cultures, consistent with the previous findings. Culture viability was routinely verified to be >90%. CD4^+ T cells were enriched using the CD4 isolation cocktail (Cat #0.130-096-533, Miltenyi Biotec, San Diego, CA) followed by negative selection using a magnetic column (Cat #0.130-042-401) according to manufacturer's protocol. Fibrocytes and isolated T cells were cultured and remained untreated or were incubated with human IgG isotype control (5 μg/ml) or teprotumumab (50 μg/mL) for 7 to 9 days. Single cell suspensions were stained with anti-human CD4, CD3, CD34, MHC-2, CD80, CD86, and PD-L1 (BD Biosciences) for 30 min, rinsed and fixed with CytoPerm/CytoFix (BD). They were then stained with anti-human INFγ and IL-17A for 20 min, rinsed, and subjected to the flow cytometry analysis. Gated CD34^+CXCR4^+ fibrocytes and CD4^+CD3^+ T cells were analyzed using quadrant settings based on negative isotype staining.
(§2) In vitro studies of CD34^+ fibrocytes and T cells PBMC and GD-OF monolayers were treated in vitro with human IgG isotype control (5 μg/ml), teprotumumab (50 μg/mL), H7 (5 μg/mL), linsitinib (1 μM), bTSH (5 mIU/mL), M22 (1 μg/mL), or IGF-1 (10 nM) for the intervals indicted in the figure legends in a 37° C., 5% CO2, humidified incubator until confluent. Brefeldin A (0.66 μl/ml), (Golgi Stop™, BD Biosciences), phorbol 12-myristate 13-acetate (PMA) (50 ng/ml) and ionomycin (1 μg/mL) were added for 5 h. Cells were rinsed with flow cytometry buffer (1×PBS, 0.5% BSA, 0.1% sodium azide) and stained with the relevant monoclonal antibodies.
In general terms: In flow cytometry, cells or beads pass a laser one at a time.

The subject of assay [2] is fibrocyte-adherent CD4+ T cells. Nature of the assay: IL-17A and INFγ in fibrocyte-adherent CD4+ T cells (flow cytometry). The method, then:
as §1, §2

A further assay concerns fibrocytes and GD-OF. Put plainly: BAFF expression and induction by bTSH. The following applies: teprotumumab 50 μg/ml or rhSlit2 50 ng/ml. On the procedure:
FIGS. 12A-12F are graphs showing the effect of bTSH, teprotumumab, and Slit2 on B-cell activating factor (BAFF) expression in fibrocytes and GD-OF. In FIGS. 12A and 12B, cultures were treated for the graded intervals indicated along the abscissas with bTSH (5 mIU/mL). Cellular RNA was harvested and subjected to reverse transcription by RT-PCR (FIG. 12A). Values were normalized to their respective GAPDH levels Medium was assayed for BAFF levels with an ELISA (FIG. 12B). Values were normalized to respective monolayer protein content. Data are expressed as mean f SD of triplicate determinations; *, p<0.05; **, p<0.01; ***, p<0.001. In FIGS. 12C-12F, bTSH, teprotumumab (50 μg/ml) or recombinant human Slit2 (rhSlit2) (50 ng/ml) were added to culture media for the times indicated and analyzed for BAFF mRNA levels as in FIG. 12A. In FIGS. 12F, parental GD-OF strains were sorted into pure CD34^+ and CD34^− subsets. Subsets were then cultured for 48 h, the final 6 h in the absence or presence of bTSH. Data were expressed as mean f SD of triplicate independent determinations from a single experiment representative of three conducted. *, p<0.05; **, p<0.01
IL-12, IL-23, IL-10, HA and BAFF ELISAs. Confluent cultures were treated with nothing or teprotumumab (50 μg/mL) for 5 d, without or with bTSH (5 mU/mL) for the intervals indicated or 72 h. […]

Another assay concerns GD-OF. Put plainly: Slit2 and ROBO1 mRNA and Slit2 protein. The following applies: 50 μg/ml, 3 d. The method, then:
FIGS. 14A-14B are graphs showing teprotumumab induces Slit2 and roundabout 1 (ROBO1) mRNA and Slit2 protein in GD-OF. Cultures were treated with either isotype control IgG or teprotumumab (50 μg/ml) for 3 d. Culture media were collected and subjected to Slit2-specific ELISA (FIG. 14A). Levels of Slit2 were normalized to respective cell layer protein content. Cellular RNA was harvested from rinsed cell layers and mRNA reverse transcribed, and cDNA subjected to quantitative real-time PCR for Slit2 and ROBO1 (FIG. 14B). Values were normalized to their respective GAPDH levels. * *, p<0.01, * **, p<0.001.
Real-time PCR Confluent fibrocyte and GD-OF cultures were incubated with bTSH (5 mIU/mL), teprotumumab (50 μg/mL) or linsitinib (1 μM) for the time intervals indicated, washed with PBS and RNA was extracted with the Aurum Total RNA Mini Kit (cat. #732-6820, Bio-Rad, Hercules, CA). Cellular RNA (2 μg) was reverse transcribed using QuantiTect Reverse Transcription kit (cat. #205314, Qiagen (Germantown, MD) and real-time PCR was performed using an Applied Biosystems instrument with QuantiTect SYBR Green PCR kit (cat. no. 204143; Qiagen, Frederick, MD). Primer sequences were as follows.

For the substance teprotumumab, the “INFγ MFI” value in assay [1] (50 μg/mL, 9 d, control 10.23±0.99) turned out to be 10.32±0.89; in assay [2] (50 μg/mL, 9 d, control MFI 64.01±10.15) it was 26.80±5.61. Also, the “IL-17A MFI” value is on record as 12.69±0.31 in assay [1] (50 μg/mL, 9 d, control isotype MFI 12.69±0.19) and 65.17±5.61 in assay [2] (50 μg/mL, 9 d, control isotype MFI 76.03±14.17). Also, the “effect on cytokine (IL-17A, INFγ) expression levels” value in assay [1] (purified T cells without fibrocytes) is given as “no such effects”. Besides, the “abundance of adherent CD3+CD4+ T cells” value in assay [2] (cultures from both donor cohorts) is given as “substantially reduced”. The “bTSH induction of BAFF” value in the assay on fibrocytes and GD-OF is “attenuated”. For the same substance, the Slit2 protein synthesis entry in the assay on GD-OF (ELISA) is “increased”. In the assay with GD-OF (three strains of GD-OF), the “ROBO1 mRNA expression” value is recorded as “induced”. Further, in the assay with GD-OF (three strains of GD-OF), the “Slit2 mRNA expression” value was “induced”.
